Experimental data from patent US20210352900A1, “Method for Controlling PPO Resistant Weeds” (BASF SE, priority 2016, published 2021).

System: Amaranthus tuberculatus (AMATU, tall waterhemp), PPO resistant biotype 2 containing the ΔG210 mutation (w.3)
Format: in vivo
Conditions: azafenidin: in comparison to sensitive biotypes

SMILES	activity on / control of resistant weeds containing the ΔG210 mutation (w.3), in words
CCc1ccc(COc2ccc(-n3c(=O)cc(C(F)(F)F)n(C)c3=O)cc2)c(OC(C)C(=O)OC)c1 (centres unmarked) [(I).1, benzfendizone]	very good activity
C#CCOc1cc(-n2nc3n(c2=O)CCCC3)c(Cl)cc1Cl [azafenidin, reference compound]	much weaker control
